Experimental data taken from PubChem BioAssay AID1918954 (Molecular Pharmacology Branch, DTP, NCI, 2023).
pIC50: −log10 of the molar value. “And” between values parts separate entries of the source, which are not always exact repeats. Identical values can stand only once.

Test system: MDA-MB-468 complex spheroids with HUVEC/MSC, viability
Test: Anticancer human tumor MDA-MB-468 cell line growth inhibition;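 further: spheroids exposed to agents for seven days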;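 on viability, T/C: 100% = DMSO vehicle control viability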
Settings: for viability, T/C: stronger effect = lower value
In short: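 Complex spheroids of tumor cells with HUVEC and human MSCs, exposed to iadademstat combined with other agents. Each agent tested in half-log steps from near clinical Cmax (else 10 microM top), DMSO ≤0.25%.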

[1] = curve of first compound, second compound 0.1 µM
[2] = curve of first compound, second compound 0.316 µM
[3] = curve of first compound, second compound 1 µM
[4] = curve of first compound, second compound 3.16 µM
[5] = curve of first compound, second compound 10 µM
[6] = second compound 0.1 µM, first compound 0.00316 µM
[7] = second compound 0.1 µM, first compound 0.01 µM
[8] = second compound 0.1 µM, first compound 0.0316 µM
[9] = second compound 0.1 µM, first compound 0.1 µM
[10] = second compound 0.1 µM, first compound 0.316 µM
[11] = second compound 0.1 µM, first compound 1 µM
[12] = second compound 0.316 µM, first compound 0.00316 µM
[13] = second compound 0.316 µM, first compound 0.01 µM
[14] = second compound 0.316 µM, first compound 0.0316 µM
[15] = second compound 0.316 µM, first compound 0.1 µM
[16] = second compound 0.316 µM, first compound 0.316 µM
[17] = second compound 0.316 µM, first compound 1 µM
[18] = second compound 1 µM, first compound 0.00316 µM
[19] = second compound 1 µM, first compound 0.01 µM
[20] = second compound 1 µM, first compound 0.0316 µM
[21] = second compound 1 µM, first compound 0.1 µM
[22] = second compound 1 µM, first compound 0.316 µM
[23] = second compound 1 µM, first compound 1 µM
[24] = second compound 3.16 µM, first compound 0.00316 µM
[25] = second compound 3.16 µM, first compound 0.01 µM
[26] = second compound 3.16 µM, first compound 0.0316 µM
[27] = second compound 3.16 µM, first compound 0.1 µM
[28] = second compound 3.16 µM, first compound 0.316 µM
[29] = second compound 3.16 µM, first compound 1 µM
[30] = second compound 10 µM, first compound 0.00316 µM
[31] = second compound 10 µM, first compound 0.01 µM
[32] = second compound 10 µM, first compound 0.0316 µM
[33] = second compound 10 µM, first compound 0.1 µM
[34] = second compound 10 µM, first compound 0.316 µM
[35] = second compound 10 µM, first compound 1 µM

## NS(=O)(=O)OCC1CC(n2ccc3c(NC4CCc5ccccc54)ncnc32)CC1O (centres undefined)
Compound 0.00949 µM
  viability, T/C: 67.5% and 55.7%
Compound 0.03 µM
  viability, T/C: 52.1% and 28.4%
Compound 0.0949 µM
  viability, T/C: 19.3% and 11.1%
Compound 0.3 µM
  viability, T/C: 12.9% and 5.49%
Compound 0.949 µM
  viability, T/C: 6.45% and 3.24%
Compound 3 µM
  viability, T/C: 3.84% and 2.08%
Curve of compound
  pIC50: 7.50 and 7.92

## Nc1ccccc1NC(=O)c1ccc(CNC(=O)OCc2cccnc2)cc1
Compound 0.00949 µM
  viability, T/C: 98.7% and 100%
Compound 0.03 µM
  viability, T/C: 99.5% and 103%
Compound 0.0949 µM
  viability, T/C: 70.2% and 36.1%
Compound 0.3 µM
  viability, T/C: 14.8% and 2.86%
Compound 0.949 µM
  viability, T/C: 3.01% and 0.37%
Compound 3 µM
  viability, T/C: 1.7% and 0.2%
Curve of compound
  pIC50: 6.84 and 7.13

## Nc1ncn(C2CC(O)C(CO)O2)c(=O)n1 (centres undefined) + NC1CC1c1ccc(-c2cccc(O)c2)cc1
[1]
  pIC50: 7.79
[2]
  pIC50: 7.71
[3]
  pIC50: 7.75
[4]
  pIC50: 7.82
[5]
  pIC50: 8.04
[6]
  viability, T/C: 87.3%
[7]
  viability, T/C: 66.9%
[8]
  viability, T/C: 27.2%
[9]
  viability, T/C: 12.3%
[10]
  viability, T/C: 9.59%
[11]
  viability, T/C: 7.38%
[12]
  viability, T/C: 89.9%
[13]
  viability, T/C: 74.8%
[14]
  viability, T/C: 31.2%
[15]
  viability, T/C: 11.8%
[16]
  viability, T/C: 8.68%
[17]
  viability, T/C: 6.69%
[18]
  viability, T/C: 92.4%
[19]
  viability, T/C: 72.2%
[20]
  viability, T/C: 27.8%
[21]
  viability, T/C: 12.6%
[22]
  viability, T/C: 7.79%
[23]
  viability, T/C: 7.05%
[24]
  viability, T/C: 90.1%
[25]
  viability, T/C: 64%
[26]
  viability, T/C: 24.4%
[27]
  viability, T/C: 11.6%
[28]
  viability, T/C: 8.23%
[29]
  viability, T/C: 6.83%
[30]
  viability, T/C: 69%
[31]
  viability, T/C: 48.1%
[32]
  viability, T/C: 25.1%
[33]
  viability, T/C: 11.4%
[34]
  viability, T/C: 7.65%
[35]
  viability, T/C: 6.35%

## NS(=O)(=O)OCC1CC(n2ccc3c(NC4CCc5ccccc54)ncnc32)CC1O (centres undefined) + NC1CCC(NC2CC2c2ccccc2)CC1
[1]
  pIC50: 7.61
[2]
  pIC50: 7.55
[3]
  pIC50: 7.56
[4]
  pIC50: 7.69
[5]
  pIC50: > 8.02
Second compound 0.1 µM, first compound 0.00949 µM
  viability, T/C: 74.4%
Second compound 0.1 µM, first compound 0.03 µM
  viability, T/C: 45%
Second compound 0.1 µM, first compound 0.0949 µM
  viability, T/C: 16.9%
Second compound 0.1 µM, first compound 0.3 µM
  viability, T/C: 9.63%
Second compound 0.1 µM, first compound 0.949 µM
  viability, T/C: 6.43%
Second compound 0.1 µM, first compound 3 µM
  viability, T/C: 4.54%
Second compound 0.316 µM, first compound 0.00949 µM
  viability, T/C: 75.9%
Second compound 0.316 µM, first compound 0.03 µM
  viability, T/C: 48.4%
Second compound 0.316 µM, first compound 0.0949 µM
  viability, T/C: 17.9%
Second compound 0.316 µM, first compound 0.3 µM
  viability, T/C: 8.22%
Second compound 0.316 µM, first compound 0.949 µM
  viability, T/C: 6.34%
Second compound 0.316 µM, first compound 3 µM
  viability, T/C: 4.71%
Second compound 1 µM, first compound 0.00949 µM
  viability, T/C: 66%
Second compound 1 µM, first compound 0.03 µM
  viability, T/C: 48.9%
Second compound 1 µM, first compound 0.0949 µM
  viability, T/C: 14.8%
Second compound 1 µM, first compound 0.3 µM
  viability, T/C: 9.7%
Second compound 1 µM, first compound 0.949 µM
  viability, T/C: 7.19%
Second compound 1 µM, first compound 3 µM
  viability, T/C: 4.84%
Second compound 3.16 µM, first compound 0.00949 µM
  viability, T/C: 69.5%
Second compound 3.16 µM, first compound 0.03 µM
  viability, T/C: 40.7%
Second compound 3.16 µM, first compound 0.0949 µM
  viability, T/C: 16.4%
Second compound 3.16 µM, first compound 0.3 µM
  viability, T/C: 8.71%
Second compound 3.16 µM, first compound 0.949 µM
  viability, T/C: 6.1%
Second compound 3.16 µM, first compound 3 µM
  viability, T/C: 4.26%
Second compound 10 µM, first compound 0.00949 µM
  viability, T/C: 46.8%
Second compound 10 µM, first compound 0.03 µM
  viability, T/C: 27%
Second compound 10 µM, first compound 0.0949 µM
  viability, T/C: 11.4%
Second compound 10 µM, first compound 0.3 µM
  viability, T/C: 5.55%
Second compound 10 µM, first compound 0.949 µM
  viability, T/C: 4.09%
Second compound 10 µM, first compound 3 µM
  viability, T/C: 3.17%

## CC(C)c1c(-c2ccccc2)nc2c(C#N)c[nH]n2c1=O + NC1CC1c1ccc(-c2cccc(O)c2)cc1
[1]
  pIC50: < 5.00
[2]
  pIC50: < 5.00
[3]
  pIC50: < 5.00
[4]
  pIC50: < 5.00
[5]
  pIC50: < 5.00
[8]
  viability, T/C: 91.7%
[9]
  viability, T/C: 89.1%
[10]
  viability, T/C: 94.4%
[11]
  viability, T/C: 96%
Second compound 0.1 µM, first compound 3.16 µM
  viability, T/C: 96.7%
Second compound 0.1 µM, first compound 10 µM
  viability, T/C: 84.1%
[14]
  viability, T/C: 89.2%
[15]
  viability, T/C: 82.6%
[16]
  viability, T/C: 92.5%
[17]
  viability, T/C: 91.4%
Second compound 0.316 µM, first compound 3.16 µM
  viability, T/C: 89.4%
Second compound 0.316 µM, first compound 10 µM
  viability, T/C: 87.9%
[20]
  viability, T/C: 89.1%
[21]
  viability, T/C: 88%
[22]
  viability, T/C: 86.7%
[23]
  viability, T/C: 102%
Second compound 1 µM, first compound 3.16 µM
  viability, T/C: 89.7%
Second compound 1 µM, first compound 10 µM
  viability, T/C: 79.5%
[26]
  viability, T/C: 102%
[27]
  viability, T/C: 83.5%
[28]
  viability, T/C: 87.6%
[29]
  viability, T/C: 88.2%
Second compound 3.16 µM, first compound 3.16 µM
  viability, T/C: 81.3%
Second compound 3.16 µM, first compound 10 µM
  viability, T/C: 74.7%
[32]
  viability, T/C: 66.7%
[33]
  viability, T/C: 67%
[34]
  viability, T/C: 59.3%
[35]
  viability, T/C: 57.2%
Second compound 10 µM, first compound 3.16 µM
  viability, T/C: 67.1%
Second compound 10 µM, first compound 10 µM
  viability, T/C: 49.4%

## COc1cc(Nc2ncc3c(n2)-c2ccc(Cl)cc2C(c2c(F)cccc2OC)=NC3)ccc1C(=O)O + NC1CC1c1ccc(-c2cccc(O)c2)cc1
[1]
  pIC50: > 8.50
[2]
  pIC50: > 8.50
[3]
  pIC50: > 8.50
[4]
  pIC50: > 8.50
[5]
  pIC50: > 8.50
[6]
  viability, T/C: 15.5%
[7]
  viability, T/C: 6.89%
[8]
  viability, T/C: 6.01%
[9]
  viability, T/C: 4.91%
[10]
  viability, T/C: 3.38%
[11]
  viability, T/C: 2.48%
[12]
  viability, T/C: 14.5%
[13]
  viability, T/C: 6.72%
[14]
  viability, T/C: 5.86%
[15]
  viability, T/C: 5.06%
[16]
  viability, T/C: 3.01%
[17]
  viability, T/C: 2.59%
[18]
  viability, T/C: 14.1%
[19]
  viability, T/C: 7.25%
[20]
  viability, T/C: 5%
[21]
  viability, T/C: 4.96%
[22]
  viability, T/C: 2.88%
[23]
  viability, T/C: 1.8%
[24]
  viability, T/C: 14.1%
[25]
  viability, T/C: 8%
[26]
  viability, T/C: 5.68%
[27]
  viability, T/C: 5.16%
[28]
  viability, T/C: 3.35%
[29]
  viability, T/C: 2.58%
[30]
  viability, T/C: 12.6%
[31]
  viability, T/C: 7.29%
[32]
  viability, T/C: 6.71%
[33]
  viability, T/C: 5.57%
[34]
  viability, T/C: 3.87%
[35]
  viability, T/C: 4.35%

## CC[C@@]1(O)C(=O)OCc2c1cc1n(c2=O)Cc2cc3c(CN(C)C)c(O)ccc3nc2-1 + NC1CCC(NC2CC2c2ccccc2)CC1
[1]
  pIC50: 9.15
[2]
  pIC50: 9.11
[3]
  pIC50: 9.12
[4]
  pIC50: 9.21
[5]
  pIC50: > 9.50
Second compound 0.1 µM, first compound 0.000316 µM
  viability, T/C: 78%
Second compound 0.1 µM, first compound 0.001 µM
  viability, T/C: 37.9%
[6]
  viability, T/C: 13.1%
[7]
  viability, T/C: 7.64%
[8]
  viability, T/C: 6.65%
[9]
  viability, T/C: 4.69%
Second compound 0.316 µM, first compound 0.000316 µM
  viability, T/C: 83.4%
Second compound 0.316 µM, first compound 0.001 µM
  viability, T/C: 40.8%
[12]
  viability, T/C: 12.7%
[13]
  viability, T/C: 8.5%
[14]
  viability, T/C: 4.51%
[15]
  viability, T/C: 4.68%
Second compound 1 µM, first compound 0.000316 µM
  viability, T/C: 89.1%
Second compound 1 µM, first compound 0.001 µM
  viability, T/C: 37.3%
[18]
  viability, T/C: 12.6%
[19]
  viability, T/C: 8.19%
[20]
  viability, T/C: 6.26%
[21]
  viability, T/C: 5.19%
Second compound 3.16 µM, first compound 0.000316 µM
  viability, T/C: 64.5%
Second compound 3.16 µM, first compound 0.001 µM
  viability, T/C: 40%
[24]
  viability, T/C: 15.2%
[25]
  viability, T/C: 11.4%
[26]
  viability, T/C: 5.77%
[27]
  viability, T/C: 6.13%
Second compound 10 µM, first compound 0.000316 µM
  viability, T/C: 49.7%
Second compound 10 µM, first compound 0.001 µM
  viability, T/C: 40.8%
[30]
  viability, T/C: 14.1%
[31]
  viability, T/C: 8.51%
[32]
  viability, T/C: 6.13%
[33]
  viability, T/C: 6.82%
